Measurements published in PubChem BioAssay (NCI).
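1) Cells in 96-well plates. 2) Compound, 48 h, 5 concentrations. 3) Linear interpolation between surrounding doses. 4) Unreached endpoint = highest concentration. The concentration for full growth arrest is given as TGI.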

Legend:
Experiment in all cases: inhibition of tumour cell growth, NCI panel, 48 h
TK-10 renal = test system: TK-10 renal
HL-60(TB) leukemia = test system: HL-60(TB) leukemia
HCC-2998 colon = test system: HCC-2998 colon
NCI-H226 lung = test system: NCI-H226 lung
HS 578T breast = test system: HS 578T breast
SK-MEL-5 melanoma = test system: SK-MEL-5 melanoma
CAKI-1 renal = test system: CAKI-1 renal
PC-3 prostate = test system: PC-3 prostate
K-562 leukemia = test system: K-562 leukemia
T-47D breast = test system: T-47D breast

`Cc1cc(S(=O)(=O)N=C2N(Cc3ccccc3)CCN2Cc2ccccc2)c(S)cc1Cl` was tested, and the TGI (TK-10 renal) was greater than 100 µM, the TGI (HL-60(TB) leukemia) was greater than 100 µM and the TGI (HCC-2998 colon) was greater than 100 µM. For the same compound, the TGI (NCI-H226 lung) was greater than 100 µM, the TGI (HS 578T breast) was greater than 100 µM and the TGI (SK-MEL-5 melanoma) was greater than 100 µM. The TGI (CAKI-1 renal) was greater than 100 µM, the TGI (PC-3 prostate) was greater than 100 µM and the TGI (K-562 leukemia) was greater than 100 µM. The TGI (T-47D breast) was greater than 100 µM.
`C=CC(CCc1ccc(C(=O)OCC)cc1)c1c(N)nc(N)[nH]c1=O` (stereo not given) showed a TGI (TK-10 renal) greater than 100 µM, a TGI (HL-60(TB) leukemia) greater than 100 µM and a TGI (HCC-2998 colon) greater than 100 µM. For the same compound, the TGI (NCI-H226 lung) was greater than 100 µM, the TGI (HS 578T breast) was greater than 100 µM and the TGI (SK-MEL-5 melanoma) was greater than 100 µM. It also gave a TGI (CAKI-1 renal) greater than 100 µM, a TGI (PC-3 prostate) greater than 100 µM and a TGI (K-562 leukemia) greater than 100 µM. For the same compound, the TGI (T-47D breast) was greater than 100 µM.
With `O=Cc1ccc(OCc2cccc(COc3ccc(/C=N\Nc4ccc([N+](=O)[O-])cc4[N+](=O)[O-])cc3)n2)cc1` the TGI (TK-10 renal) was greater than 100 µM, the TGI (HL-60(TB) leukemia) was greater than 100 µM and the TGI (HCC-2998 colon) was greater than 100 µM. It also gave a TGI (NCI-H226 lung) greater than 100 µM, a TGI (HS 578T breast) greater than 100 µM and a TGI (SK-MEL-5 melanoma) greater than 100 µM. For the same compound, the TGI (CAKI-1 renal) was greater than 100 µM, the TGI (PC-3 prostate) was greater than 100 µM and the TGI (K-562 leukemia) was greater than 100 µM. The TGI (T-47D breast) was greater than 100 µM.
With `CCOP(C)(=O)C(N)Cc1ccc(OC)c(OC)c1` (stereo not given) the TGI (TK-10 renal) was greater than 100 µM, the TGI (HL-60(TB) leukemia) was greater than 100 µM and the TGI (HCC-2998 colon) was greater than 100 µM. For the same compound, the TGI (NCI-H226 lung) was greater than 100 µM, the TGI (HS 578T breast) was greater than 100 µM and the TGI (SK-MEL-5 melanoma) was greater than 100 µM. For the same compound, the TGI (CAKI-1 renal) was greater than 100 µM, the TGI (PC-3 prostate) was greater than 100 µM and the TGI (K-562 leukemia) was greater than 100 µM. The TGI (T-47D breast) was greater than 100 µM.
For `CCN(CC)C(=O)Cn1c(C)cc2ccccc21`, the TGI (TK-10 renal) was greater than 100 µM, the TGI (HL-60(TB) leukemia) was greater than 100 µM and the TGI (HCC-2998 colon) was greater than 100 µM. For the same compound, the TGI (NCI-H226 lung) was greater than 100 µM, the TGI (HS 578T breast) was greater than 100 µM and the TGI (SK-MEL-5 melanoma) was greater than 100 µM. The TGI (CAKI-1 renal) was greater than 100 µM, the TGI (PC-3 prostate) was greater than 100 µM and the TGI (K-562 leukemia) was greater than 100 µM. It also gave a TGI (T-47D breast) greater than 100 µM.
In the case of `COc1cc(CNCc2cc(OC)c(OC)c(OC)c2)cc(OC)c1OC`, the TGI (TK-10 renal) is reported as greater than 10 µM, the TGI (HL-60(TB) leukemia) is reported as greater than 6.74 µM and the TGI (HCC-2998 colon) is reported as greater than 10 µM. It also gave a TGI (NCI-H226 lung) greater than 10 µM, a TGI (HS 578T breast) greater than 10 µM and a TGI (SK-MEL-5 melanoma) greater than 10 µM. The TGI (CAKI-1 renal) was greater than 10 µM, the TGI (PC-3 prostate) was greater than 10 µM and the TGI (K-562 leukemia) was greater than 7.36 µM. It also gave a TGI (T-47D breast) greater than 10 µM.
`CCOC(=O)c1cc(C(O)P2(=O)N(CC(C)(C)C)[C@@H]3CCCC[C@H]3N2CC(C)(C)C)cn1C(=O)OC(C)(C)C` (stereo not given in full) gave a TGI (TK-10 renal) of 57.3 µM, a TGI (HL-60(TB) leukemia) of 48.6 µM and a TGI (HCC-2998 colon) of 29.7 µM. It also gave a TGI (NCI-H226 lung) of 39.4 µM, a TGI (HS 578T breast) of 36.1 µM and a TGI (SK-MEL-5 melanoma) of 31.3 µM. For the same compound, the TGI (CAKI-1 renal) was 51 µM, the TGI (PC-3 prostate) was 48.5 µM and the TGI (K-562 leukemia) was 47 µM. It also gave a TGI (T-47D breast) greater than 100 µM.
`Cc1c(S(=O)(=O)/N=C(\NO)Nc2ccc(Cl)c(Cl)c2)sc2ccc(Cl)cc12` was tested, and the TGI (TK-10 renal) was 34.4 µM, the TGI (HL-60(TB) leukemia) was 77.3 µM and the TGI (HCC-2998 colon) was 44.6 µM. The TGI (NCI-H226 lung) was 43.8 µM, the TGI (HS 578T breast) was 80.9 µM and the TGI (SK-MEL-5 melanoma) was 31.5 µM. The TGI (CAKI-1 renal) was 38.2 µM, the TGI (PC-3 prostate) was 36.7 µM and the TGI (K-562 leukemia) was 71.4 µM. The TGI (T-47D breast) was 36.7 µM.
`Cc1ccc(N=Nc2c(O)ccc3cc(S(=O)(=O)O)cc(S(=O)(=O)O)c23)cc1` was tested, and the TGI (TK-10 renal) was greater than 100 µM, the TGI (HL-60(TB) leukemia) was greater than 100 µM and the TGI (HCC-2998 colon) was greater than 100 µM. The TGI (NCI-H226 lung) was greater than 100 µM, the TGI (HS 578T breast) was greater than 100 µM and the TGI (SK-MEL-5 melanoma) was greater than 100 µM. The TGI (CAKI-1 renal) was greater than 100 µM, the TGI (PC-3 prostate) was greater than 100 µM and the TGI (K-562 leukemia) was greater than 100 µM. For the same compound, the TGI (T-47D breast) was greater than 100 µM.
In the case of `CC(C)=CCC/C(C)=C/C=C/C(C)=C/C=C/C(C)=C/C=C/C=C(C)/C=C/C=C(C)/C=C/[C@H]1C(C(C)(C)O)CC[C@]1(C)O` (stereo not given in full), the TGI (TK-10 renal) is reported as greater than 100 µM, the TGI (HL-60(TB) leukemia) is reported as 48.9 µM and the TGI (HCC-2998 colon) is reported as 30 µM. For the same compound, the TGI (NCI-H226 lung) was greater than 100 µM, the TGI (HS 578T breast) was 59.1 µM and the TGI (SK-MEL-5 melanoma) was 33.5 µM. The TGI (CAKI-1 renal) was greater than 100 µM, the TGI (PC-3 prostate) was greater than 100 µM and the TGI (K-562 leukemia) was 63.6 µM. It also gave a TGI (T-47D breast) greater than 100 µM.
With `Cc1ccc2c(c1)C(C(=O)N[C@@H]1C(=O)N3[C@@H]1SC(C)(C)[C@@H]3C(=O)O)OCCC2` (stereo not given in full) the TGI (TK-10 renal) was greater than 100 µM, the TGI (HL-60(TB) leukemia) was greater than 100 µM and the TGI (HCC-2998 colon) was greater than 100 µM. The TGI (NCI-H226 lung) was greater than 100 µM, the TGI (HS 578T breast) was greater than 100 µM and the TGI (SK-MEL-5 melanoma) was greater than 100 µM. The TGI (CAKI-1 renal) was greater than 100 µM, the TGI (PC-3 prostate) was greater than 100 µM and the TGI (K-562 leukemia) was greater than 100 µM. It also gave a TGI (T-47D breast) greater than 100 µM.
`O=C1/C(=N/O)Cc2c(Br)ccc(Br)c21` was tested, and the TGI (TK-10 renal) was greater than 100 µM, the TGI (HL-60(TB) leukemia) was 76.3 µM and the TGI (HCC-2998 colon) was greater than 100 µM. It also gave a TGI (NCI-H226 lung) greater than 100 µM, a TGI (HS 578T breast) greater than 100 µM and a TGI (SK-MEL-5 melanoma) greater than 100 µM. The TGI (CAKI-1 renal) was greater than 100 µM, the TGI (PC-3 prostate) was greater than 100 µM and the TGI (K-562 leukemia) was 84.5 µM. For the same compound, the TGI (T-47D breast) was greater than 100 µM.
`C[C@]12CCC(=O)O[C@H]1CCCCO2` showed a TGI (TK-10 renal) greater than 100 µM, a TGI (HL-60(TB) leukemia) greater than 100 µM and a TGI (HCC-2998 colon) greater than 100 µM. The TGI (NCI-H226 lung) was greater than 100 µM, the TGI (HS 578T breast) was greater than 100 µM and the TGI (SK-MEL-5 melanoma) was greater than 100 µM. The TGI (CAKI-1 renal) was greater than 100 µM, the TGI (PC-3 prostate) was greater than 100 µM and the TGI (K-562 leukemia) was greater than 100 µM. For the same compound, the TGI (T-47D breast) was greater than 100 µM.
Compound `CCN(CC)C(=S)N/N=C(/C)c1cccc(/C(C)=N\NC(=S)N(CC)CC)n1` has a TGI (TK-10 renal) of 11.7 µM, a TGI (HL-60(TB) leukemia) of 3.77 µM and a TGI (HCC-2998 colon) of 23.8 µM. For the same compound, the TGI (NCI-H226 lung) was 4.77 µM, the TGI (HS 578T breast) was greater than 100 µM and the TGI (SK-MEL-5 melanoma) was 8.2 µM. It also gave a TGI (CAKI-1 renal) of 5.29 µM, a TGI (PC-3 prostate) of 17 µM and a TGI (K-562 leukemia) of 11.6 µM. It also gave a TGI (T-47D breast) of 16.9 µM.
Work on `O=C1CC(=Nc2ccc(Cl)cc2)C(c2ccccc2)N1c1ccccc1` (stereo not given) yielded a TGI (TK-10 renal) greater than 100 µM, a TGI (HL-60(TB) leukemia) of 21.3 µM and a TGI (HCC-2998 colon) greater than 100 µM. It also gave a TGI (NCI-H226 lung) of 85.7 µM, a TGI (HS 578T breast) of 26.6 µM and a TGI (SK-MEL-5 melanoma) of 22.8 µM. The TGI (CAKI-1 renal) was 5.71 µM, the TGI (PC-3 prostate) was greater than 100 µM and the TGI (K-562 leukemia) was greater than 100 µM. For the same compound, the TGI (T-47D breast) was 6.27 µM.
